In US7094524B2, “Thermally development imaging materials having backside stabilizers” (Eastman Kodak Company, priority 2003, dated 2006):

Assay: pH of 0.005 molar solution in 15% methanol/85% water
Type: physicochemical
From the text: TABLE I also includes vapor pressure (VP) and pKa values for the various backside stabilizers.

Row | SMILES | pH
1 | C1CNCCN1 [AB-1] | 10.4
2 | C1CN2CCN1CC2 [AB-2] | 9.8
3 | CN(C)C(=N)N(C)C [AB-3] | 11.8
4 | OCCN(CCO)CCO [AB-5] | 9.1
5 | C1CCC2=NCCCN2CC1 [AB-6, 1,8-diazabicyclo[5.4.0]undec-7-ene] | 11.8
6 | c1ccc(Nc2ccccn2)nc1 [AB-7] | 8.5
7 | N=C(Nc1ccccc1)Nc1ccccc1 [AB-8] | 10.6
8 | c1ccc(CN(Cc2ccccc2)Cc2ccccc2)cc1 [AB-9] | 8.6
